US6737383B1, “Herbicidal oxadiazolidines” (priority 1999, dated 2004)

Assays:
cocklebur = test: Test B pre/postemergence cocklebur; format: in vivo, Xanthium strumarium
Procedure, shortened: (§1)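 Test chemicals in a non-phytotoxic solvent mixture with surfactant were sprayed preemergence onto planted seeds and postemergence onto plants 2 to 18 cm tall (1- to 4-leaf stage). After twelve to sixteen days in a greenhouse, injury was visually rated against untreated controls from 0 (no effect) to 10 (complete control).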

sugar beet = test: Test B pre/postemergence sugar beet; format: in vivo, Beta vulgaris
Procedure, shortened: as §1

smallflower flatsedge = test: Test B flood test smallflower flatsedge; format: in vivo, Cyperus difformis
Procedure, shortened: (§2)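 Read-out is a visual response score from 0 (no effect) to 10 (complete control), assigned by comparison with untreated controls. Treatment was applied at the 2-leaf stage, and plants stayed in the greenhouse for twelve to sixteen days before scoring.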

bamyardgrass = test: Test B flood test barnyardgrass; format: in vivo, Echinochloa crus-galli
Procedure, shortened: as §2

[1] = Postemergence, Rate 125 g/ha, scale 0 to 10, 0 is no effect, 10 is complete control
[2] = Postemergence, Rate 250 g/ha, scale 0 to 10, 0 is no effect, 10 is complete control
[3] = Preemergence, Rate 62 g/ha, scale 0 to 10 (0 no effect, 10 complete control)
[4] = Preemergence, Rate 250 g/ha, scale of 0 to 10 where 0 is no effect and 10 is complete control
[5] = Preemergence, Rate 500 g/ha, scale of 0 to 10 where 0 is no effect and 10 is complete control
[6] = Rate 62 g/ha, Postemergence, scale of 0 to 10 where 0 is no effect and 10 is complete control
[7] = Rate 500 g/ha, Postemergence, scale 0 to 10, 0 no effect, 10 complete control
[8] = Postemergence (flood test), Rate 125 g/ha, scale 0 to 10, 0 is no effect, 10 is complete control
[9] = Rate 62 g/ha, Postemergence (flood test species), scale of 0 to 10 where 0 is no effect and 10 is complete control
[10] = Rate 500 g/ha, listed under Postemergence (flood test species), scale 0 to 10, 0 no effect, 10 complete control
[11] = flood test species, listed under Postemergence, Rate 250 g/ha, scale 0 to 10, 0 is no effect, 10 is complete control
[12] = Preemergence, Rate 62 g/ha, scale of 0 to 10 where 0 is no effect and 10 is complete control
[13] = Rate 62 g/ha, Postemergence, scale 0 to 10 (0 no effect, 10 complete control)
[14] = Rate 125 g/ha, Postemergence, scale of 0 to 10 where 0 is no effect and 10 is complete control
[15] = Rate 125 g/ha, Preemergence, scale of 0 to 10 where 0 is no effect and 10 is complete control
[16] = Rate 250 g/ha, Postemergence, scale of 0 to 10 where 0 is no effect and 10 is complete control
[17] = Rate 62 g/ha, headed Pre-emergence (flood test species), scale 0 to 10 (0 no effect, 10 complete control)
[18] = Rate 125 g/ha, Pre-emergence, flood test species, scale 0 to 10 where 0 is no effect and 10 is complete control
[19] = Rate 250 g/ha, Pre-emergence, flood-test species, scale 0 to 10, 0 is no effect, 10 is complete control
[20] = Rate 500 g/ha, Pre-emergence, flood test species, scale 0 to 10 (0 no effect, 10 complete control)
[21] = Postemergence, Rate 62 g/ha, scale 0 to 10, 0 is no effect, 10 is complete control
[22] = Postemergence, Rate 250 g/ha, scale 0 to 10, 0 no effect, 10 complete control
[23] = Preemergence, Rate 125 g/ha, scale 0 to 10 (0 no effect, 10 complete control)
[24] = Preemergence, Rate 500 g/ha, scale 0 (no effect) to 10 (complete control)
[25] = Rate 125 g/ha, Postemergence, scale 0 to 10, 0 no effect, 10 complete control
[26] = Rate 125 g/ha, Postemergence section (flood test species), scale 0 to 10, 0 no effect, 10 complete control
[27] = flood test, listed under Postemergence, Rate 250 g/ha, scale 0 to 10, 0 no effect, 10 complete control
[28] = Preemergence, Rate 62 g/ha, scale 0 to 10, 0 is no effect, 10 is complete control
[29] = Preemergence, Rate 125 g/ha, 0 is no effect, 10 is complete control
[30] = Preemergence, Rate 250 g/ha, scale 0 to 10, 0 is no effect, 10 is complete control
[31] = Rate 125 g/ha, Postemergence, scale 0 to 10
[32] = Rate 500 g/ha, Postemergence, scale 0 to 10

CCN(CC)C(=O)n1oc(=O)n(-c2ccccc2C)c1=O [Compound 364]
0: Plant response rating, Cocklebur (cocklebur; [1]) | Plant response rating, Cocklebur (cocklebur; [2]) | Plant response rating, Cocklebur (cocklebur; [3]) | Cocklebur plant response rating (0 to 10 scale) (cocklebur; Preemergence, Rate 125 g/ha) | Cocklebur plant response rating (cocklebur; [4]) | Cocklebur plant response rating (cocklebur; [5]) | Cocklebur plant response rating (cocklebur; [6]) | Plant response rating, Sugarbeets (sugar beet; [1]) | Plant response rating, Sugarbeets (sugar beet; [2]) | Plant response rating, Sugarbeets (sugar beet; [3]) | Sugarbeets plant response rating (0 to 10 scale) (sugar beet; Preemergence, Rate 125 g/ha) | Sugarbeets plant response rating (sugar beet; [4]) | Sugarbeets plant response rating (sugar beet; [5]) | Sugarbeets plant response rating (sugar beet; [6]) | Plant response rating, S. Flatsedge (smallflower flatsedge; [8]) | S. Flatsedge plant response rating (smallflower flatsedge; [9]) | Plant response rating, S. Flatsedge (smallflower flatsedge; [11]) | Plant response rating, Barnyardgrass (bamyardgrass; [8]) | Barnyardgrass plant response rating (bamyardgrass; [9]) | Plant response rating, Barnyardgrass (bamyardgrass; [10]) | Plant response rating, Barnyardgrass (bamyardgrass; [11])
3: Plant response rating, S. Flatsedge (smallflower flatsedge; [10])
1: Plant response rating, Sugarbeets (sugar beet; [7])
2: Plant response rating, Cocklebur (cocklebur; [7])

CC(C)N(C(=O)n1oc(=O)n(C[Si](C)(C)C)c1=O)c1ccc(F)cc1 [Compound 294]
4: S. Flatsedge plant response rating (smallflower flatsedge; [20])
2: Plant response rating, Sugarbeets (sugar beet; [5])
9: Barnyardgrass plant response rating (bamyardgrass; [19]) | Barnyardgrass plant response rating (bamyardgrass; [20])
3: Barnyardgrass plant response rating (bamyardgrass; [18])
0: Cocklebur plant response rating (cocklebur; [12]) | Cocklebur plant response rating (cocklebur; [4]) | Cocklebur plant response rating (cocklebur; [13]) | Cocklebur plant response rating (cocklebur; [14]) | Cocklebur plant response rating (cocklebur; [15]) | Plant response rating, Cocklebur (cocklebur; [16]) | Cocklebur plant response rating (cocklebur; [7]) | Sugarbeets plant response rating (sugar beet; [12]) | Sugarbeets plant response rating (sugar beet; [4]) | Sugarbeets plant response rating (sugar beet; [13]) | Sugarbeets plant response rating (sugar beet; [14]) | Sugarbeets plant response rating (sugar beet; [15]) | Plant response rating, Sugarbeets (sugar beet; [16]) | S. Flatsedge plant response rating (smallflower flatsedge; [17]) | S. Flatsedge plant response rating (smallflower flatsedge; [18]) | S. Flatsedge plant response rating (smallflower flatsedge; [19]) | Barnyardgrass plant response rating (bamyardgrass; [17])

Cc1cc(C)c(-n2c(=O)on(C(=O)N(c3ccc(Cl)cc3)C(C)C)c2=O)c(C)c1 [Compound 61]
2: Sugarbeets plant response rating (sugar beet; [22]) | Sugarbeets plant response rating (sugar beet; [25])
0: Cocklebur plant response rating (cocklebur; [21]) | Cocklebur plant response rating (cocklebur; [22]) | Cocklebur plant response rating (cocklebur; [3]) | Plant response rating, Cocklebur (cocklebur; [23]) | Plant response rating, Cocklebur (cocklebur; [4]) | Cocklebur plant response rating (cocklebur; [24]) | Cocklebur plant response rating (cocklebur; [25]) | Sugarbeets plant response rating (sugar beet; [21]) | Sugarbeets plant response rating (sugar beet; [3]) | Plant response rating, Sugarbeets (sugar beet; [23]) | S. Flatsedge plant response rating (smallflower flatsedge; [21]) | S. Flatsedge plant response rating (smallflower flatsedge; [26]) | S. Flatsedge plant response rating (smallflower flatsedge; [10]) | S. Flatsedge plant response rating (smallflower flatsedge; [27]) | Barnyardgrass plant response rating (bamyardgrass; [21]) | Barnyardgrass plant response rating (bamyardgrass; [26]) | Barnyardgrass plant response rating (bamyardgrass; [10]) | Barnyardgrass plant response rating (bamyardgrass; [27])
1: Cocklebur plant response rating (cocklebur; [7])
6: Sugarbeets plant response rating (sugar beet; [24]) | Sugarbeets plant response rating (sugar beet; [7])
5: Plant response rating, Sugarbeets (sugar beet; [4])

Cc1ccccc1-n1c(=O)on(C(=O)N(c2ccc3c(c2)CCC3)C(C)C)c1=O [Compound 278]
3: Cocklebur plant response rating (cocklebur; [7])
0: Cocklebur plant response rating (cocklebur; [12]) | Cocklebur plant response rating (cocklebur; [4]) | Plant response rating, Cocklebur (cocklebur; [5]) | Cocklebur plant response rating (cocklebur; [13]) | Cocklebur plant response rating (cocklebur; [14]) | Cocklebur plant response rating (cocklebur; [15]) | Plant response rating, Cocklebur (cocklebur; [16]) | Sugarbeets plant response rating (sugar beet; [12]) | Sugarbeets plant response rating (sugar beet; [4]) | Plant response rating, Sugarbeets (sugar beet; [5]) | Sugarbeets plant response rating (sugar beet; [13]) | Sugarbeets plant response rating (sugar beet; [14]) | Sugarbeets plant response rating (sugar beet; [15]) | Plant response rating, Sugarbeets (sugar beet; [16]) | Sugarbeets plant response rating (sugar beet; [7]) | S. Flatsedge plant response rating (smallflower flatsedge; [17]) | S. Flatsedge plant response rating (smallflower flatsedge; [18]) | S. Flatsedge plant response rating (smallflower flatsedge; [19]) | S. Flatsedge plant response rating (smallflower flatsedge; [20]) | Barnyardgrass plant response rating (bamyardgrass; [17]) | Barnyardgrass plant response rating (bamyardgrass; [18]) | Barnyardgrass plant response rating (bamyardgrass; [19]) | Barnyardgrass plant response rating (bamyardgrass; [20])

CCN(CC)C(=O)n1oc(=O)n(-c2cc(Cl)cc(Cl)c2)c1=O [Compound 11]
0: Cocklebur plant response rating (cocklebur; [21]) | Cocklebur plant response rating (cocklebur; [22]) | Plant response rating, Cocklebur (cocklebur; [28]) | Plant response rating, Cocklebur (cocklebur; [23]) | Plant response rating, Cocklebur (cocklebur; [4]) | Cocklebur plant response rating (cocklebur; [24]) | Cocklebur plant response rating (cocklebur; [25]) | Cocklebur plant response rating (cocklebur; Rate 500 g/ha, Postemergence, 0 to 10 scale (0 no effect, 10 complete control)) | Sugarbeets plant response rating (sugar beet; [21]) | Sugarbeets plant response rating (sugar beet; [22]) | Plant response rating, Sugarbeets (sugar beet; [28]) | Plant response rating, Sugarbeets (sugar beet; [23]) | Plant response rating, Sugarbeets (sugar beet; [4]) | Sugarbeets plant response rating (sugar beet; [24]) | Sugarbeets plant response rating (sugar beet; [25]) | S. Flatsedge plant response rating (smallflower flatsedge; [21]) | S. Flatsedge plant response rating (smallflower flatsedge; [26]) | S. Flatsedge plant response rating (smallflower flatsedge; [27]) | Barnyardgrass plant response rating (bamyardgrass; [21]) | Barnyardgrass plant response rating (bamyardgrass; [26]) | Barnyardgrass plant response rating (bamyardgrass; Rate 500 g/ha, Postemergence section of Table B, 0 to 10 scale (0 no effect, 10 complete control)) | Barnyardgrass plant response rating (bamyardgrass; [27])

CC(C)N(C(=O)n1oc(=O)n(Cc2ccco2)c1=O)c1ccc(Cl)cc1 [Compound 206]
0: Cocklebur plant response rating (cocklebur; [12]) | Cocklebur plant response rating (0 to 10 scale) (cocklebur; [29]) | Cocklebur plant response rating (cocklebur; [30]) | Plant response rating, Cocklebur (cocklebur; [5]) | Cocklebur plant response rating (cocklebur; [6]) | Cocklebur plant response rating (cocklebur; [31]) | Plant response rating (0 to 10; 0 is no effect, 10 is complete control), Cocklebur (cocklebur; Rate 250 g/ha, Postemergence) | Cocklebur plant response rating (cocklebur; [32]) | Sugarbeets plant response rating (sugar beet; [12]) | Sugarbeets plant response rating (0 to 10 scale) (sugar beet; [29]) | Sugarbeets plant response rating (sugar beet; [30]) | Plant response rating, Sugarbeets (sugar beet; [5]) | Sugarbeets plant response rating (sugar beet; [6]) | Sugarbeets plant response rating (sugar beet; [31]) | Plant response rating (0 to 10; 0 is no effect, 10 is complete control), Sugarbeets (sugar beet; Rate 250 g/ha, Postemergence) | Sugarbeets plant response rating (sugar beet; [32]) | S. Flatsedge plant response rating (smallflower flatsedge; [17]) | S. Flatsedge plant response rating (smallflower flatsedge; [18]) | S. Flatsedge plant response rating (smallflower flatsedge; [19]) | S. Flatsedge plant response rating (smallflower flatsedge; [20]) | Barnyardgrass plant response rating (bamyardgrass; [17]) | Barnyardgrass plant response rating (bamyardgrass; [18]) | Barnyardgrass plant response rating (bamyardgrass; [19]) | Barnyardgrass plant response rating (bamyardgrass; [20])
